Source: ChEMBL document CHEMBL1150321
Activity calls are given as the source filed them. No cut-off for these calls is given here.

Legend:
[1] = target: Baculoviral IAP repeat-containing protein 2 (Homo sapiens) (UniProt Q13490); assay: Binding affinity to human BIR3 domain of cIAP1 by photoaffinity labeling assay in presence of (S)-2-((2S,3R)-3-Amino-2-hydroxy-4-phenyl-butyrylamino)-4-methyl-pentanoic acid methyl ester
[2] = target: Baculoviral IAP repeat-containing protein 2 (Homo sapiens) (UniProt Q13490); assay: Binding affinity to human BIR3 domain of cIAP1 by fluorescence polarization assay
[3] = target: Baculoviral IAP repeat-containing protein 2 (Homo sapiens) (UniProt Q13490); assay: Binding affinity to human BIR3 domain of cIAP1 at 150 uM after 30 mins by photoaffinity labeling assay in presence of (S)-2-((2S,3R)-3-Amino-2-hydroxy-4-phenyl-butyrylamino)-4-methyl-pentanoic acid methyl ester

Baculoviral IAP repeat-containing protein 2 (Homo sapiens), sequence (Q13490 whole entry, looked up, the tested form may be a part): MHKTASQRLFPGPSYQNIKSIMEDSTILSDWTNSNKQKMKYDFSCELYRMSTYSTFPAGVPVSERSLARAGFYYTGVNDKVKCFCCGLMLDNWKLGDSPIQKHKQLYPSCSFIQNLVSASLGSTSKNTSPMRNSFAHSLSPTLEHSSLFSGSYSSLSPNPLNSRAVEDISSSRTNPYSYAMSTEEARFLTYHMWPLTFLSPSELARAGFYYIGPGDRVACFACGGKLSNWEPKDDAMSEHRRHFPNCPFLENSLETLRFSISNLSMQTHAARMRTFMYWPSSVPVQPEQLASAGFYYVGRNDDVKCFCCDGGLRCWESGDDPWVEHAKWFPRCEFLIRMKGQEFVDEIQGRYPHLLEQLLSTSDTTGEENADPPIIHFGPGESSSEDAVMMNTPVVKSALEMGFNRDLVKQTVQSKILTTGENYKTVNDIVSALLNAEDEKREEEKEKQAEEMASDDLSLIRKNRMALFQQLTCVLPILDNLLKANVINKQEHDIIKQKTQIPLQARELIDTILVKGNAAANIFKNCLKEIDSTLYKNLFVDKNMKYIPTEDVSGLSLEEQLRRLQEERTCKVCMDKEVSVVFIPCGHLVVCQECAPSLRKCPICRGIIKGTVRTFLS

Activity [1]	Activity [2]	Activity [3]	SMILES
Active	Active	–	CC(C)C[C@H](NC(=O)[C@@H](O)[C@H](N)Cc1ccccc1)C(=O)OCCNS(=O)(=O)c1cccc2c(N(C)C)cccc12
–	–	Active	CC(C)C[C@H](NC(=O)[C@@H](O)[C@H](N)Cc1ccccc1)C(=O)OCCNS(=O)(=O)c1cccc2c(N=[N+]=[N-])cccc12
